Measured values as given in US9441023B2, “Peptide YY analogs” (GlaxoSmithKline Intellectual Property Development Limited, priority 2013, dated 2016).

Columns and labels:
[1] = cumulative food intake, diet-induced obese mice (Model B), BioDaQ system; assay type: in vivo; conditions: Table 1; DIO male C57BL/6 mice, 1 mg/kg s.c., cumulative food intake after 6 h, relative to vehicle; negative = reduction
Experimental: (§1) Cumulative food intake after 6 h was determined for the PYY analogs in either lean (Model A) or diet-induced obese (DIO) (Model B) C57BL/6 mice in a BioDaQ system for continuous monitoring of food intake (Research Diets Inc., New Brunswick, N.J.). […] Mice were placed singly into the BioDaQ cages and acclimatized for a minimum of 6 days and were allowed ad libitum access to food and water. Approximately 1 hour prior to lights-out, animals were dosed subcutaneously with either vehicle (20 mM Acetate buffer, pH 4.9 or 20% DMSO in water) or analogs dissolved in vehicle (1 mg/kg) (8 animals per group). Once all animals have been dosed, feeder gates were opened providing ad-libitum access to food. Continuous food intake was monitored and collected for 15 hours. […] P-values <0.05 were considered to indicate a significant difference between treatment groups.

[2] = cumulative food intake, lean mice (Model A), BioDaQ system; assay type: in vivo; conditions: Table 1; lean male C57BL/6 mice, 1 mg/kg s.c., cumulative food intake after 6 h, relative to vehicle; negative = reduction
Experimental: as §1

[3] = target: T1, human Neuropeptide Y receptor type 2 (Homo sapiens, UniProt P49146); assay: melanophore assay, potency at human Neuropeptide Y receptor type 2; assay type: cell-based; conditions: Table 1, read-out: hNPY Y2 pEC50 (converted)
T1 construct: expressed in transfected cells; host or cells: melanophores (own knowledge: Xenopus laevis melanophores transfected with the receptor, as in the cited protocol)
T1 sequence (P49146 1-381): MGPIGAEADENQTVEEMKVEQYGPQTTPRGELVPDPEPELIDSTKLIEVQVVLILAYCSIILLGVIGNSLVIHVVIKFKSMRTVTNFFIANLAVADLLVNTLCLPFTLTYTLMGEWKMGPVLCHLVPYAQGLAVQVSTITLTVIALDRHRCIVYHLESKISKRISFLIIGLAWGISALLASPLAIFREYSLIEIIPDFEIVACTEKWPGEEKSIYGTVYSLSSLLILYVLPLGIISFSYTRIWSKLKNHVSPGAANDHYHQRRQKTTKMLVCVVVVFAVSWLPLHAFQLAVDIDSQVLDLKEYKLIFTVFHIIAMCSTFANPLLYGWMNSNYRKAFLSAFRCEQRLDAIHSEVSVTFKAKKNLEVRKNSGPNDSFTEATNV

| SMILES | % reduction in food intake, model B [1] [%] | % reduction in food intake, model A [2] [%] | EC50 [3] [nM] |
| --- | --- | --- | --- |
| CC(C)C[C@H](NC(=O)[C@H](CO)NC(=O)[C@H](C)NC(=O)[C@H](Cc1ccc(O)cc1)NC(=O)[C@H](Cc1ccc(O)cc1)NC(=O)[C@H](CCCNC(=N)N)NC(=O)[C@H](CC(N)=O)NC(=O)[C@H](Cc1c[nH]c2ccccc12)NC(=O)[C@H](CCC(=O)O)NC(=O)[C@H](CCC(=O)O)NC(=O)[C@@H]1CCCN1C(=O)[C@H](CO)NC(=O)[C@H](C)NC(=O)[C@H](CC(=O)O)NC(=O)[C@H](CCCCN)NC(=O)CNC(=O)[C@@H]1CCCN1C(=O)[C@H](Cc1c[nH]cn1)NC(=O)[C@H](CCC(=O)O)NC(=O)[C@@H]1CCCN1C(=O)[C@H](CCCCN)NC(=O)[C@@H]1CCCN1)C(=O)N[C@@H](CCCNC(=N)N)C(=O)N[C@@H](CCCCN)C(=O)N[C@@H](Cc1ccc(O)cc1)C(=O)N[C@@H](CC(C)C)C(=O)N[C@@H](CC(N)=O)C(=O)N[C@@H](Cc1c[nH]c2ccccc12)C(=O)N[C@H](C(=O)N[C@H](C(=O)N[C@@H](CCCNC(=N)N)C(=O)N[C@@H](CCC(N)=O)C(=O)N[C@@H](CCCNC(=N)N)C(=O)N[C@@H](Cc1ccc(O)cc1)C(N)=O)[C@@H](C)O)C(C)C [Example 25] | −68 |  |  |
| CC(C)C[C@H](NC(=O)[C@H](CC(=O)O)NC(=O)[C@H](C)NC(=O)[C@H](Cc1ccc(O)cc1)NC(=O)[C@H](Cc1ccc(O)cc1)NC(=O)[C@H](CCCNC(=N)N)NC(=O)[C@H](CC(N)=O)NC(=O)[C@H](Cc1c[nH]c2ccccc12)NC(=O)[C@H](CCC(=O)O)NC(=O)[C@H](CCC(=O)O)NC(=O)[C@@H]1CCCN1C(=O)[C@H](CO)NC(=O)[C@H](C)NC(=O)[C@H](CC(=O)O)NC(=O)[C@H](CCCCN)NC(=O)CNC(=O)[C@@H]1CCCN1C(=O)[C@H](C)NC(=O)[C@H](CCC(=O)O)NC(=O)[C@@H]1CCCN1C(=O)[C@H](CCCCN)NC(=O)[C@@H]1CCCN1)C(=O)N[C@@H](CCCNC(=N)N)C(=O)N[C@@H](CCCCN)C(=O)N[C@@H](Cc1ccc(O)cc1)C(=O)N[C@@H](CC(C)C)C(=O)N[C@@H](CC(N)=O)C(=O)N[C@@H](Cc1c[nH]c2ccccc12)C(=O)N[C@@H](CC(C)C)C(=O)N[C@H](C(=O)N[C@@H](CCCNC(=N)N)C(=O)N[C@@H](CCC(N)=O)C(=O)N[C@@H](CCCNC(=N)N)C(=O)N[C@@H](Cc1ccc(O)cc1)C(N)=O)[C@@H](C)O [Example 4] |  | −83 | 0.02 |
